Assay results reported in patent publication US12410179B2, “Modulators of TNF alpha activity and uses thereof” (RayThera, Inc., priority 2023, dated 2025).
Where two headings read alike, the source gives them in different places.

Target: TNFα (Homo sapiens, UniProt P01375)
Assay: HEK-Blue hTNFα reporter assay
Type: cell-based
Set-up: purchased R&D biosystem (R&D Systems) 210-TA-020/CF
Settings: HEK-Blue hTNFα reporter cells
Excerpt: Stimulation of HEK293 cells by TNFα leads to activation of the NF-κB pathway. The potency of compounds was examined in HEK-Blue™ hTNFα reporter cells (Invivogen, Cat #hkb-tnfdmyd). HEK-Blue™ TNFα cells were generated by stable transfection of HEK293 cell line with a SEAP reporter gene under the control of the […] minimal promoter fused to NF-κB binding sites. Stimulation of HEK-Blue™ TNFα cells with TNFα triggers the activation of the NF-κB-inducible promoter and the production of SEAP. Levels of SEAP in the supernatant can be easily determined using QUANTI-Blue™ Solution (Invivogen, cat #rep-qbs) by reading the OD at 620-655 nm.
HEK-Blue™ TNFα cells were cultured in DMEM supplemented with 10% FBS, 100p/mL penicillin, 100 μg/mL streptomycin, 100 μg/mL normocin, 1 μg/mL puromycin, and 100 μg/mL zeocin. The culture was maintained in culture incubator with 5% CO2 at 37° C. When used for assay, the cells were gently rinsed twice with pre-warmed phosphate buffered saline (PBS) and detached in presence of PBS by tapping the flask or by using a cell scraper. The cells were spun to remove PBS and resuspended in fresh, pre-warmed test medium (DMEM supplemented with 10% FBS, 100p/mL penicillin, and 100 μg/mL streptomycin). A serial dilution of work solution of tested compound was made in DMSO with 1000× of final concentration, and 40 nL of compound DMSO solution was transferred into 384-well plates (Corning 3764) by Echo, and incubated with 10 μL of recombinant hTNFα (R&D biosystem, Cat #210-TA-020/CF) for 1 h at 37° C. The compound/hTNFα mixture well received 30 μL HEK-Blue™ TNFα cell suspension at 10000 cells/well, and then incubated at 37° C. with 5% CO2 for 24 h. The final concentration of hTNFα is […]. After incubation, 5 μL of induced cell supernatant was transferred to a new 384-well plate well (Coring 3764) to mix with 45 μL of QUANTI-Blue Solution. After 1 h incubation at 37° C., the plate was read using a spectrophotometer at 620 nm.
The percentage of inhibition was calculated by the following formula: % inhibition=(positive control−Sample)/(positive control−negative control)*100 • Positive control: OD620 reading of cells with hTNFα stimulation. • Negative control: OD620 reading of cells without hTNFα stimulation. • Sample: OD620 reading of cells with compound at specific concentration and hTNFα stimulation
The % inhibition was plotted against compound concentration in logarithmic scale and the IC50 was rendered using 4-parameter nonlinear regression (GraphPad Prism).

[1] = SEAP readout, read-out: IC50 Range

Chain of TNFα (P01375 77-233 limits assumed): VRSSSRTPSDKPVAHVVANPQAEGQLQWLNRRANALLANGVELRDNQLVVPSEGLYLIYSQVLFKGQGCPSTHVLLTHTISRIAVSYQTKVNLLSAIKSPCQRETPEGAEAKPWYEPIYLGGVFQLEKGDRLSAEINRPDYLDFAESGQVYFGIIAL

Compound | IC50 [1] [nM] | also measured
CN1C(=O)c2cccc(OC(F)F)c2[C@H]2C[C@@H]1c1nn3ccc(-c4cnc(C5(O)CCOCC5)nc4)cc3c12 [Example 65] | < 25 | Emax (read-out: TNFα reporter, Emax): 90%; IC50 (read-out: TNFα reporter, IC50): 3.1 nM
CN1C(=O)c2cccc(OC(F)F)c2[C@H]2C[C@@H]1c1nn3ccc(-c4cnc(C5(O)CC(F)(F)C5)nc4)cc3c12 [Example 66] | < 25 | 
CN1C(=O)c2cccc(OC(F)F)c2[C@H]2C[C@@H]1c1nn3ccc(-c4cnc(OCP(C)(C)=O)nc4)cc3c12 [Example 67] | < 25 | 
CN1C(=O)c2cccc(OC(F)F)c2[C@H]2C[C@@H]1c1nn3ccc(-c4ccc(S(=N)(=O)C5CC5)nc4)cc3c12 (stereo partly shown) [Example 68] | < 25 | 
CN1C(=O)c2cccc(OC(F)F)c2[C@H]2C[C@@H]1c1nn3ccc(-c4ccnc(OCP(C)(C)=O)c4)cc3c12 [Example 70] | < 25 | 
CN1C(=O)c2cccc(OC(F)F)c2[C@H]2C[C@@H]1c1nn3ccc(-c4cnc(C5(O)CCC5)nc4)cc3c12 [Example 71] | < 25 | 
CN1C(=O)c2cccc(OC(F)F)c2[C@H]2C[C@@H]1c1nn3ccc(-c4cnc(C5(O)CCC(F)(F)CC5)nc4)cc3c12 [Example 72] | < 25 | 
CN1C(=O)c2cccc(OC(F)F)c2[C@H]2C[C@@H]1c1nn3ccc(-c4cnc([C@@](C)(O)C(F)F)nc4)cc3c12 [Example 73] | < 25 | 
CN1C(=O)c2cccc(OC(F)F)c2[C@H]2C[C@@H]1c1nn3ccc(-c4cnc([C@](C)(O)C(F)F)nc4)cc3c12 [Example 74] | < 25 | 
CN1C(=O)c2cccc(OC(F)F)c2[C@H]2C[C@@H]1c1nn3ccc(-c4cnc([C@](C)(O)CC#N)nc4)cc3c12 [Example 75] | < 25 | 
CN1C(=O)c2cccc(OC(F)F)c2[C@H]2C[C@@H]1c1nn3ccc(-c4cnc([C@@](C)(O)CC#N)nc4)cc3c12 [Example 76] | < 25 | 
CN1C(=O)c2cccc(OC(F)F)c2[C@H]2C[C@@H]1c1nn3ccc(-c4cnc(C5(O)COC5)nc4)cc3c12 [Example 77] | < 25 | 
CN1C(=O)c2cccc(OC(F)F)c2[C@H]2C[C@@H]1c1nn3ccc(-c4cnc([C@](O)(CC#N)C(F)F)nc4)cc3c12 [Example 78] | < 25 | 
CN1C(=O)c2cccc(OC(F)F)c2[C@H]2C[C@@H]1c1nn3ccc(-c4cnc([C@@](O)(CC#N)C(F)F)nc4)cc3c12 [Example 79] | < 25 | 
CN1C(=O)c2cccc(OC(F)F)c2[C@H]2C[C@@H]1c1nn3ccc(-c4cnc([C@@](C)(O)C5CC5)nc4)cc3c12 [Example 80] | < 25 | 
CN1C(=O)c2cccc(OC(F)F)c2[C@H]2C[C@@H]1c1nn3ccc(-c4cnc([C@](C)(O)C5CC5)nc4)cc3c12 [Example 81] | < 25 | 
CN1C(=O)c2cccc(OC(F)F)c2[C@H]2C[C@@H]1c1nn3ccc(-c4cnc([C@]5(O)C[C@@H](O)C5)nc4)cc3c12 [Example 82] | < 25 | 
CN1C(=O)c2cccc(OC(F)F)c2[C@H]2C[C@@H]1c1nn3ccc(-c4cnc([C@](C)(O)CO)nc4)cc3c12 [Example 83] | < 25 | 
CN1C(=O)c2cccc(OC(F)F)c2[C@H]2C[C@@H]1c1nn3ccc(-c4cnc([C@@](C)(O)CO)nc4)cc3c12 [Example 84] | < 25 | 
CN1C(=O)c2cccc(OC(F)F)c2[C@H]2C[C@@H]1c1nn3ccc(-c4cnc([C@@](C)(O)C5COC5)nc4)cc3c12 [Example 85] | < 25 | 
CN1C(=O)c2cccc(OC(F)F)c2[C@H]2C[C@@H]1c1nn3ccc(-c4cnc([C@](C)(O)C5COC5)nc4)cc3c12 [Example 86] | < 25 | 
CN1C(=O)c2cccc(OC(F)F)c2[C@H]2C[C@@H]1c1nn3ccc(-c4cnc(P(C)(C)=O)cn4)cc3c12 [Example 87] | < 25 | 

Compound | IC50 [1] [nM] | also measured
CN1C(=O)c2cccc(OC(F)F)c2[C@H]2C[C@@H]1c1nn3ccc(-c4cnc([C@]5(N)C[C@@](C)(C(=O)O)C5)nc4)cc3c12 [Example 88] | < 25 | 
[2H]C([2H])([2H])N1C(=O)c2cccc(OC(F)F)c2[C@H]2C[C@@H]1c1nn3ccc(-c4cnc([C@@](C)(O)CC#N)nc4)cc3c12 [Example 89] | < 25 | 
[2H]C([2H])([2H])N1C(=O)c2cccc(OC(F)F)c2[C@H]2C[C@@H]1c1nn3ccc(-c4cnc([C@](C)(O)CC#N)nc4)cc3c12 [Example 90] | < 25 | 
CN1C(=O)c2cccc(OC(F)F)c2[C@H]2C[C@@H]1c1nn3ccc(-c4cnc([C@]5(O)C[C@](O)(C(F)F)C5)nc4)cc3c12 [Example 91] | < 25 | 
CN1C(=O)c2cccc(OC(F)F)c2[C@H]2C[C@@H]1c1nn3ccc(-c4cnc(S(=N)(=O)C5CC5)nc4)cc3c12 (stereo partly shown) [Example 92] | 25 to 100 | 
C[C@H](O)c1ncc(-c2ccn3nc4c(c3c2)[C@@H]2C[C@H]4N(C)C(=O)c3cccc(OC(F)F)c32)cn1 [Example 93] | < 25 | 
C[C@@H](O)c1ncc(-c2ccn3nc4c(c3c2)[C@@H]2C[C@H]4N(C)C(=O)c3cccc(OC(F)F)c32)cn1 [Example 94] | < 25 | 
CN1C(=O)c2cccc(OC(F)F)c2[C@H]2C[C@@H]1c1nn3ccc(-c4cnc(C(O)(CF)CF)nc4)cc3c12 [Example 95] | < 25 | 
[2H]C([2H])([2H])N1C(=O)c2cccc(OC(F)F)c2[C@H]2C[C@@H]1c1nn3ccc(-c4cnc([C@](O)(CC#N)C(F)F)nc4)cc3c12 [Example 96] | < 25 | 
[2H]C([2H])([2H])N1C(=O)c2cccc(OC(F)F)c2[C@H]2C[C@@H]1c1nn3ccc(-c4cnc([C@@](O)(CC#N)C(F)F)nc4)cc3c12 [Example 97] | < 25 | 
CN1C(=O)c2cccc(OC(F)F)c2[C@H]2C[C@@H]1c1nn3cc(F)c(-c4cnc(C5(O)COC5)nc4)cc3c12 [Example 98] | < 25 | 
CN1C(=O)c2cccc(OC(F)F)c2[C@H]2C[C@@H]1c1nn3ccc(-c4cnc(C5(N)CC(F)(F)C5)nc4)cc3c12 [Example 99] | < 25 | 
CN1C(=O)c2cccc(OC(F)F)c2[C@H]2C[C@@H]1c1nn3ccc(-c4ccc(P(C)(C)=O)nn4)cc3c12 [Example 100] | < 25 | 
CN1C(=O)c2cccc(OC(F)F)c2[C@H]2C[C@@H]1c1nn3ccc(-c4cnc([C@]5(O)CC[C@@H](O)C5)nc4)cc3c12 [Example 101] | < 25 | 
CN1C(=O)c2cccc(OC(F)F)c2[C@H]2C[C@@H]1c1nn3ccc(-c4cnc([C@@]5(O)CC[C@H](O)C5)nc4)cc3c12 [Example 102] | < 25 | 
CN1C(=O)c2cccc(OC(F)F)c2[C@H]2C[C@@H]1c1nn3ccc(-c4cnc([C@H](N)C5CC5)nc4)cc3c12 [Example 103] | < 25 | 
CN1C(=O)c2cccc(OC(F)F)c2[C@H]2C[C@@H]1c1nn3ccc(-c4cnc([C@@H](N)C5CC5)nc4)cc3c12 [Example 104] | < 25 | 
CN1C(=O)c2cccc(OC(F)F)c2[C@H]2C[C@@H]1c1nn3ccc(-c4cnc([C@H](O)C(F)F)nc4)cc3c12 [Example 105] | < 25 | 
CN1C(=O)c2cccc(OC(F)F)c2[C@H]2C[C@@H]1c1nn3ccc(-c4cnc([C@@H](O)C(F)F)nc4)cc3c12 [Example 106] | < 25 | 
CN1C(=O)c2cccc(OC(F)F)c2[C@H]2C[C@@H]1c1nn3ccc(-c4ncc([C@@H](O)C5COC5)cn4)cc3c12 [Example 107] | < 25 | 
CN1C(=O)c2cccc(OC(F)F)c2[C@H]2C[C@@H]1c1nn3ccc(-c4ncc([C@H](O)C5COC5)cn4)cc3c12 [Example 108] | < 25 | 
CN1C(=O)c2cccc(OC(F)F)c2[C@H]2C[C@@H]1c1nn3cc(F)c(-c4cnc([C@]5(O)C[C@@](C)(O)C5)nc4)cc3c12 [Example 109] | < 25 | 
